Experimental findings from US12275745B2, “Therapeutic compounds and methods of use” (Genentech, Inc., priority 2021, dated 2025) are described below.

pIC50: −log10 of the molar value.

The target in assay [1] is TEAD1 (Homo sapiens, UniProt P28347). Briefly: TR-FRET (Lipid HTRF) TEAD lipid pocket probe displacement assay, TEAD1. The class given is binding. Conditions: His-tagged TEAD1, biotinylated lipid pocket probe, 4 hours.
Method: (§1) His-tagged TEAD proteins are pre-incubated with TEAD project compounds for 30 minutes or 4 hours at room temperature. Biotinylated lipid pocket probes are then added to the TEAD/Compound mixture and incubated for 60 minutes at room temperature. The lipid pocket probe competes with the test compound for the TEAD lipid pocket until equilibrium is reached. After 60 minutes, Europium labelled anti-His (Perkin Elmer #AD0110) and XL665 labelled streptavidin (CIS Bio 610SAXAC) are added to the TEAD/test compound/lipid pocket mixture and incubated for 30 minutes or 4 hours. TR-FRET values are then measured using an EnVision multi-label plate reader (Perkin Elmer Cat #2104-001 0A.) If the lipid pocket probe binds to TEAD as expected, a TR-FRET signal results from the proximity of anti-His Eu and XL665. If a TEAD lipid pocket binder such as binds and displaces the lipid pocket probe, the disruption of the TEAD:probe interaction results in a decrease in TR-FRET signal. The potency of compounds as TEAD lipid pocket binders is determined by IC50 value generated using a non-linear 4 parameter curve fit.
In assay [2] the target is TEAD3 (Homo sapiens, UniProt Q99594). As to the kind of experiment: TR-FRET (Lipid HTRF) TEAD lipid pocket probe displacement assay, TEAD3. The class given is binding. Conditions: His-tagged TEAD3, biotinylated lipid pocket probe, 4 hours.
Chain of TEAD3 (Q99594 whole entry, species assumed): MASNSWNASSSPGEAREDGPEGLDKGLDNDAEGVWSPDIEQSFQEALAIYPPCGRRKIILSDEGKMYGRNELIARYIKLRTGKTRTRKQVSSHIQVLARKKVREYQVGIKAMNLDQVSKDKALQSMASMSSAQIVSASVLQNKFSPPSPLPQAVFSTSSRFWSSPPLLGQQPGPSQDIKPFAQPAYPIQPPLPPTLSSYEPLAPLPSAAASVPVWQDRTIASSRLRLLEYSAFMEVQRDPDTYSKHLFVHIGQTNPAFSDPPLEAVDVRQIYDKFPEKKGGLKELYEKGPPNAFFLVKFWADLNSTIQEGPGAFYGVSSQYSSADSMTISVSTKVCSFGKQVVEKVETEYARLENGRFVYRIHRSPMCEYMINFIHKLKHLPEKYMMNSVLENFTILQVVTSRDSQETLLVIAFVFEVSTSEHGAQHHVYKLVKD
Method: as §1
Assay [3] concerns the target TEAD4 (Homo sapiens, UniProt Q15561). Briefly: TR-FRET (Lipid HTRF) TEAD lipid pocket probe displacement assay, TEAD4. The class given is binding. As to conditions: His-tagged TEAD4, biotinylated lipid pocket probe, 4 hours.
The target in assay [4] is TEAD2 (Homo sapiens, UniProt Q15562). As to the kind of experiment: biochemical.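 Note: TR-FRET competition assay with His-tagged TEAD protein and a biotinylated lipid pocket probe, where probe displacement by compound lowers the signal.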
Chain of TEAD2 (Q15562 whole entry, species assumed): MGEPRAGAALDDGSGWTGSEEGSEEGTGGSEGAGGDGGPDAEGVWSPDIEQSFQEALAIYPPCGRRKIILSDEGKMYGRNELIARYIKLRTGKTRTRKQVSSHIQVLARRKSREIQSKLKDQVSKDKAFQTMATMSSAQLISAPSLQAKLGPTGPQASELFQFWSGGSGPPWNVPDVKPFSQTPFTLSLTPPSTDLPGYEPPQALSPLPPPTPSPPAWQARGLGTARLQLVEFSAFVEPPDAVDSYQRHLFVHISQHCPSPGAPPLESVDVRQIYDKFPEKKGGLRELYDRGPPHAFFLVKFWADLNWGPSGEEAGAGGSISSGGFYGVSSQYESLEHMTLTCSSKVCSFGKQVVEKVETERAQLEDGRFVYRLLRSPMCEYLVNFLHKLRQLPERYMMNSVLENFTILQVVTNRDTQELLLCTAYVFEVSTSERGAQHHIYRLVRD
Method: as §1

Chain of TEAD1 (P28347 whole entry, species assumed): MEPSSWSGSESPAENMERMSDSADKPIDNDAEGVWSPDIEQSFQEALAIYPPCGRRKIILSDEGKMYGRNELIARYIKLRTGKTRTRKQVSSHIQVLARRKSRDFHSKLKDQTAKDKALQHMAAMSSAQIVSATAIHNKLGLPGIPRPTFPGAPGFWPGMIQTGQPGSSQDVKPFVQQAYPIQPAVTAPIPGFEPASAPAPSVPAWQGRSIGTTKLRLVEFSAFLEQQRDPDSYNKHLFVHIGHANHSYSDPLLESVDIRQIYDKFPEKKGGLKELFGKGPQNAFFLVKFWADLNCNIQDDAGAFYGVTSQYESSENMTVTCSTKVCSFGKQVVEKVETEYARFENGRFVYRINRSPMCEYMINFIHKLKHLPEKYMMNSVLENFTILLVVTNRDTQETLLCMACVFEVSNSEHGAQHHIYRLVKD
Chain of TEAD4 (Q15561 whole entry, species assumed): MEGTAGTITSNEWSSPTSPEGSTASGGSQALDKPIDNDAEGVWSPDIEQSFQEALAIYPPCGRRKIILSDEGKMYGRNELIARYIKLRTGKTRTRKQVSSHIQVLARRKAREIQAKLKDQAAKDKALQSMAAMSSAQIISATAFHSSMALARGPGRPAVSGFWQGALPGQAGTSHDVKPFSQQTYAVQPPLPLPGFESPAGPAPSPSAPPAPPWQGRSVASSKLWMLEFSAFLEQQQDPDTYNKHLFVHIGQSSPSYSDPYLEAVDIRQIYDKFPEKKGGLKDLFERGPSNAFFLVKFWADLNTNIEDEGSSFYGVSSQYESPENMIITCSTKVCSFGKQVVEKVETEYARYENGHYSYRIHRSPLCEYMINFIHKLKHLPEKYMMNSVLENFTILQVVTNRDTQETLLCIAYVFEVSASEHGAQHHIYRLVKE

The pIC50 is the negative decadic logarithm of the IC50, by convention in mol/L. A low value points to a large IC50. Turning to `C=CC(=O)NCc1cc(-c2ccc(OC(F)(F)F)cc2)c2nccn2c1` [Compound 37, N-[[8-[4-(trifluoromethoxy)phenyl]imidazo[1,2-a]pyridin-6-yl]methyl]prop-2-enamide], the pIC50 in assay [1] was 7.00; in assay [2] it was 6.64; in assay [3], 7.09; in assay [4], 6.02.
Take `C=CC(=O)NCc1cc(-c2ccc(OC(F)(F)F)cc2)c2c(c1[C@H](O)CC#N)CCO2` (single isomer, unassigned) [Compound 91]: the negative logarithm of the IC50 (pIC50) in assay [1] was 6.85; in assay [2], 4.96; in assay [3], 7.20; in assay [4], 7.47.
On to `C=C(NC(=O)c1cc(-c2ccc(OC(F)(F)F)cc2)c2ncn(C)c2c1)C(=O)OC` [Compound 141, Methyl 2-(1-methyl-4-(4-(trifluoromethoxy)phenyl)-1H-benzo[d]imidazole-6-carboxamido)acrylate], for which the negative-log IC50 (pIC50) in assay [1] was 7.24; in assay [2], 5.80; in assay [3] it was 7.82; in assay [4] it was 7.01.
As for `C=CC(=O)NCc1cc(-c2ccc(OC(F)(F)F)cc2)c2ncsc2c1-c1noc(=O)[nH]1` [Compound 104, N-((7-(5-Oxo-4,5-dihydro-1,2,4-oxadiazol-3-yl)-4-(4-(trifluoromethoxy)phenyl)benzo[d]thiazol-6-yl)methyl)acrylamide], the pIC50 in assay [1] is 7.02; in assay [2], 7.57; in assay [3] it was 7.40; in assay [4], 7.10.
The corresponding values for `C=CC(=O)N(C)Cc1cc(-c2ccc(OC(F)(F)F)cc2)c2ncoc2c1[C@@H](O)CO` (single isomer, unassigned) [Compound 108] are 6.89, 7.33, 7.62 and 7.12.
Take `Cn1cnc2c(-c3ccc(OC(F)(F)F)cc3)nc(C3(C#N)CN(C(=O)/C=C/CO)C3)nc21` [Compound 128, (E)-1-(4-Hydroxybut-2-enoyl)-3-(9-methyl-6-(4-(trifluoromethoxy)phenyl)-9H-purin-2-yl)azetidine-3-carbonitrile]: the pIC50 in assay [1] is 7.96; in assay [2], 8.00; in assay [3] it was 8.57; in assay [4], 7.68.
As to `C=CC(=O)NCc1cc(-c2ccc(OC(F)(F)F)cc2)c2nccnc2c1[C@@H](C)O` (single isomer, unassigned) [Compound 82], the pIC50 in assay [1] is 7.16; in assay [2], 5.74; in assay [3], 6.62; in assay [4] it was 7.82.
As to `C=CC(=O)N(C)Cc1cc(-c2ccc(OC(F)(F)F)cc2)c2c(c1[C@@H](O)CO)CCO2` (single isomer, unassigned) [Compound 56], the pIC50 was 7.32 in assay [1], 7.00 in assay [2], 7.89 in assay [3] and 7.46 in assay [4].
Turning to `C=CC(=O)NCc1nc2c(c(-c3ccc(OC(F)(F)F)cc3)n1)OCC2` [Compound 13, N-[[4-[4-(trifluoromethoxy)phenyl]-6,7-dihydrofuro[3,2-d]pyrimidin-2-yl]methyl]prop-2-enamide], the pIC50 in assay [1] was 7.07; in assay [2], 6.77; in assay [3] it was 7.46; in assay [4], 6.49.
For `C=CC(=O)NCc1cc(-c2ccc(OC(F)(F)F)cc2)c2cccnc2c1[C@@H](O)CO` (single isomer, unassigned) [Compound 46], the pIC50 was 7.66 in assay [1], 7.10 in assay [2], 6.90 in assay [3] and 8.21 in assay [4].
The like results for `C=C(F)C(=O)NCc1cc(-c2ccc(OC(F)(F)F)cc2)c2c(c1C#N)CCO2` [Compound 67, N-[[4-cyano-7-[4-(trifluoromethoxy)phenyl]-2,3-dihydrobenzofuran-5-yl]methyl]-2-fluoro-prop-2-enamide] were, in that order, 7.03, 6.38, 6.85 and 6.47.
In the case of `C=C(F)C(=O)NCc1cc(-c2ccc(OC(F)(F)F)cc2)c2ncn(C)c2c1CO` [Compound 63, 2-fluoro-N-[[4-(hydroxymethyl)-3-methyl-7-[4-(trifluoromethoxy)phenyl]benzimidazol-5-yl]methyl]prop-2-enamide], the pIC50 in assay [1] is 6.96; in assay [2] it was 6.51; in assay [3] it was 7.10; in assay [4], 7.12.
As for `O=C(NCc1cc(-c2ccc(OC(F)(F)F)cc2)c2nccnc2c1[C@@H](O)CO)C1=CCC1` [Compound 81, (R)-N-((5-(1,2-Dihydroxyethyl)-8-(4-(trifluoromethoxy)phenyl)quinoxalin-6-yl)methyl)cyclobut-1-ene-1-carboxamide], the pIC50 is 7.51 in assay [1], 6.66 in assay [2], 7.89 in assay [3] and 7.68 in assay [4].
For `C=CC(=O)NCc1cc(-c2ccc(C(F)(F)F)cc2)c2ncoc2c1[C@@H](O)CO` (single isomer, unassigned) [Compound 110], the negative-log IC50 (pIC50) in assay [1] was 6.85; in assay [2], 6.01; in assay [3], 6.59; in assay [4] it was 7.33.
As to `C#Cc1ccc(-c2cc(CN(C)C(=O)C=C)c(CO)c3c2OCC3)cc1` [Compound 94, N-((7-(4-Ethynylphenyl)-4-(hydroxymethyl)-2,3-dihydrobenzofuran-5-yl)methyl)-N-methylacrylamide], the pIC50 in assay [1] is 7.36; in assay [2], 7.25; in assay [3], 7.89; in assay [4], 7.17.
Regarding `C=CC(=O)NCc1nc(-c2ccc(OC(F)(F)F)cc2)c2nc(C)sc2n1` [Compound 35, N-[[2-methyl-7-[4-(trifluoromethoxy)phenyl]thiazolo[5,4-d]pyrimidin-5-yl]methyl]prop-2-enamide], the pIC50 is 7.96 in assay [1], 6.10 in assay [2], 6.48 in assay [3] and 6.14 in assay [4].
As for `C=CC(=O)NCc1cc(-c2ccc(OC(F)(F)F)cc2)c2nccn2c1CO` [Compound 5, N-((5-(hydroxymethyl)-8-(4-(trifluoromethoxy)phenyl)imidazo[1,2-a]pyridin-6-yl)methyl)acrylamide], the pIC50 in assay [1] is 6.90; in assay [2] it was 6.54; in assay [3], 6.57; in assay [4], 6.64.
As for `C=CC(=O)N1CC(c2nc(-c3ccc(OC(F)(F)F)cc3)c3ncsc3n2)C1` [Compound 99, 1-(3-(7-(4-(Trifluoromethoxy)phenyl)thiazolo[5,4-d]pyrimidin-5-yl)azetidin-1-yl)prop-2-en-1-one], the pIC50 was 8.43 in assay [1], 8.51 in assay [2], 8.57 in assay [3] and 8.37 in assay [4].
The like results for `C=CC(=O)NCc1cc(-c2ccc(OC(F)(F)F)cc2)c2nccnc2c1CO` [Compound 84, N-((5-(Hydroxymethyl)-8-(4-(trifluoromethoxy)phenyl)quinoxalin-6-yl)methyl)acrylamide] were, in that order, 7.57, 7.41, 7.32 and 7.68.
As for `C=CC(=O)N(C)Cc1cc(-c2ccc(OC(F)(F)F)cc2)c2ncoc2c1[C@H](O)CO` (single isomer, unassigned) [Compound 107], the pIC50 in assay [1] was 7.00; in assay [2], 6.11; in assay [3] it was 7.44; in assay [4], 7.70.
